Assay [1] has as its target Numax™ (MEDI-524) (Homo sapiens, UniProt P01834+P01857). Kind of assay: Binding ELISA of F-peptides. To be noted: peptide coated on plate, MEDI-524 detected with anti-human IgG-HRP. Here is the method:
Based in part upon the results of the MARM analysis above, F peptides were synthesized (done by AnaSpec, Inc. San Jose, Calif.). Each well of the assay plate was coated with […] of […] of a particular soluble RSV F-Peptide overnight at 2-8° C. After the plate was aspirated and washed with PBS/0.05% Tween-20 buffer, it was blocked by incubating with PBS/0.05% Tween-20/0.5% BSA buffer for one hour at ambient temperature. The plate was washed and MEDI-524 standard curve samples, test samples, MEDI-524 Reference Standard, and negative control were added to the washed plate. Following a one-hour incubation at ambient temperature, the plate was washed, and […] of a goat anti-human IgG-HRP (horseradish peroxidase) at 1:16,000 dilution was added to the plate. After washing, […] of 3,3′,5,5′-tetramethylbenzidine (TMB) substrate was then added to the plate and incubated at ambient temperature protected from light for 10 minutes. The enzymatic reaction was stopped by adding […] of 2N H2SO4, and the absorbance at 450 nm was measured using a microplate reader. […] After meeting all system suitability requirements, as well as meeting the criteria of the parallelism test, the ED50 ratio of the test sample to Reference Standard was calculated, and the results were expressed as a percentage of the Reference Standard binding activity. […]
In general terms: In an ELISA, binding on a coated surface is turned into a signal by an enzyme label.

Assay [2] deals with Numax™ (Homo sapiens, UniProt P01834+P01857). Kind of assay: Biacore kinetic analysis of F peptides on captured Numax™. Type of assay: binding. To be noted: F peptide 100 nM over captured Numax™, Biacore 3000. On the procedure:
All studies were performed using Sensor Chip CM5 (Biacore AB, Uppsala, Sweden) which contains a carboxymethyl (CM) dextran matrix and a Biacore® 3000 surface plasmon resonance (SPR) biosensor (Biacore AB, Uppsala, Sweden).
Numax™ was captured via a high-affinity interaction between the Fc portion of Numax™ and a goat anti-human IgG(Fc) (KPL, Inc., Gaithersburg, Md.). Goat anti-human IgG(Fc) was covalently attached to the CM dextran matrix using amine coupling chemistry. Two anti-human IgG(Fc)-specific surfaces were created. Numax™ was diluted to 10.9 μg/mL with HBS-EP and flowed for 1 min. across one of the anti-human IgG (Fc) surfaces at a flow rate of 5 μL/min. The other anti-human IgG(Fc) surface was used as a reference surface. F peptide was prepared by dilution in HBS-EP (0.01 M Hepes pH 7.4, 0.15 M NaCl, 3 mM EDTA, 0.005% surfactant P20) to a final concentration of 100 nM. F peptide was injected for 1 min. in a serial-flow manner across the reference surface and the Numax™-specific surface. Dissociation of bound F peptide was monitored for 2 min in the presence of HBS-EP. After this dissociation period, Numax™ and F peptide were removed with a 30-sec injection of 10 mM glycine pH 1.7 (Biacore AB, Uppsala, Sweden). Because of the removal of Numax™, it was necessary to create a new Numax™-specific surface prior to the injection of each F peptide.
On the technique in general: Surface plasmon resonance follows binding to a sensor surface in real time, without labels.

The target in assay [3] is T1, MEDI-524 Fab (Homo sapiens, UniProt P01834+P01857).
T1 construct: 0.088 mg/mL (1.88 μM-46.3 KDa) of MEDI-524 Fab
T1 sequence (P01857 with tags, fused parts or gaps limits assumed, other chains not shown): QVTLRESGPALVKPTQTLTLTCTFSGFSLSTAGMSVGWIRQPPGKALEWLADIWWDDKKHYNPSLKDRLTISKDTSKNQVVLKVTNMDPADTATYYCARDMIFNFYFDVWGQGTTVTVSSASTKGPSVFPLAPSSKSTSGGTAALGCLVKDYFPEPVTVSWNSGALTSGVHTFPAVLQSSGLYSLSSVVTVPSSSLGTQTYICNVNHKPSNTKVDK
Kind of assay: Isothermal titration calorimetry (ITC) of F peptides with MEDI-524 Fab. Type of assay: binding. Particulars: at 18° C., 25 mM His, pH 6.07. Here is the method: For this set of experiments, […] (1.16 μM-148.4 KDa) of MEDI-524 Mab and 0.088 mg/mL (1.88 μM-46.3 KDa) of MEDI-524 Fab, both in 25 mM His, pH 6.07 were used. On the other hand, 250 μL of 1 mg/mL of the different peptides dissolved in H2O, were provided by ABC. The peptides were then diluted into the appropriate volume of buffer to give a final concentration of 50 μM. The ITC experiments were run at 18° C. with the macromolecule (Mab or Fab) in the cell, by doing ˜26 injections of 10 μL of peptides, spaced 360 sec with constant stirring. The data fitting was accomplished by subtracting the average value of the few last injections as the buffer and unspecific heat of dilution contributions. […] A note apart is the fact that the observed binding capacity (N) increases with the length of the peptide, indicating possibly an extra conformational factor in the binding event. The entropic contribution: For the peptides SEQ ID NOs.24 and 26, the entropic factor seems to be similar; the extra amino acids at the end of the N-terminal seems not to affect greatly the binding parameters. On the other hand, the elongation at the C-terminal seems to decrease slightly the binding enthalpy, the binding constant, as well as the entropic factor. […] The binding constant seems to be smaller (weaker) for both 30-mer peptides respect to the 26-mer.

The test system of assay [4] is MEDI-524 Mab. Briefly: Isothermal titration calorimetry (ITC) of F peptides with MEDI-524 Mab. Type of assay: binding. Particulars: 25 mM His, pH 6 at 10° C. Here is the method: To evaluate the binding properties of the wild-type peptide (SEQ ID NO.28) to Numax™/MEDI-524 by using the ITC technique. The MEDI-524 Mab was titrated with SEQ ID NO.28 in the basis buffer 25 mM His, pH 6 at 10° C. SEQ ID NO.28: (MW=2732.14, no W, Y, or C). A working solution of 55 μM was prepared by diluting 30 μL of a 5 mg/mL peptide solution with 970 μL of 25 mM His, pH 6 buffer to be used for the ITC titrations. A 1.15 μM (0.1706 mg/ml) working solution of MEDI-524 was used for the experiments (MW 148400, A280=1.47).
For this set of experiments, […] (1.16 μM-148.4 KDa) of MEDI-524 Mab and 0.088 mg/mL (1.88 μM-46.3 KDa) of MEDI-524 Fab, both in 25 mM His, pH 6.07 were used. On the other hand, 250 μL of 1 mg/mL of the different peptides dissolved in H2O, were provided by ABC. The peptides were then diluted into the appropriate volume of buffer to give a final concentration of 50 μM. The ITC experiments were run at 18° C. with the macromolecule (Mab or Fab) in the cell, by doing ˜26 injections of 10 μL of peptides, spaced 360 sec with constant stirring. The data fitting was accomplished by subtracting the average value of the few last injections as the buffer and unspecific heat of dilution contributions. […]

The test system of assay [5] is RSV MARM B2 (F protein K272M). Kind of assay: Microneutralization assay of MARM B2. Particulars: selection Synagis ®.
Assay [6] relates to RSV MARM B7 (F protein K272T). Kind of assay: Microneutralization assay of MARM B7. Particulars: selection Synagis ®.
Assay [7] relates to RSV MARM B9 (F protein K272Q). Kind of assay: Microneutralization assay of MARM B9. To be noted: selection Synagis ®.
Assay [8] concerns RSV MARM #13 (F protein N262K, K272Q). Kind of assay: Microneutralization assay of MARM #13. To be noted: MARM #13, N262K and K272Q, selection Synagis ® then A4b4.
The test system of assay [9] is RSV MARM #10 (F protein K272E, N276Y). Briefly: Microneutralization assay of MARM #10. To be noted: MARM #10, K272E and N276Y, selection A4b4.
The subject of assay [10] is RSV MARMs #6 and NuMARM3 (F protein K272E). Kind of assay: Microneutralization assay of K272E MARMs. Particulars: for Neutralization of RSV: residue 272 altered from lysine (K) to glutamic acid (E).
Assay [11] relates to RSV MARM B1 (F protein K272N). Briefly: Microneutralization assay of monoclonal antibody resistant mutant (MARM) B1. Particulars: selection Synagis ®.
Assay [12] addresses RSV F protein. Briefly: BIAcore analysis of Numax Ref. Std. Type of assay: binding. Particulars: Numax reference standard. An excerpt:
BIAcore analysis can measure the kinetic interactions of anti-RSV antibodies with RSV F peptides by surface plasmon resonance using a BIAcore 1000, 2000, or 3000 instrument (Biacore, Uppsala, Sweden). Purified recombinant, C-terminally truncated F protein was covalently coupled to a (1-ethyl-3-[3-dimethylaminopropyl]carbodiimide hydrochloride)/N-hydroxysuccinimide-activated CM5 sensor chip at a low protein density (see Johnsson et al. (1991) Anal. Biochem. 198, 268-277). The unreacted active ester groups were blocked with 1 M ethanolamine. For use as a reference, when the BIAcore 2000 or 3000 instrument was used, a blank surface, containing no antigen, was prepared under identical immobilization conditions. To minimize binding variations caused by different lots of F proteins, most of the antibodies were measured against the same lot of F protein. In several cases when different lots of F proteins were used, their binding to an anti-RSV antibody was used as a reference to make sure that these lots had similar binding characteristics to the lot that is used mainly. A serial 2-fold dilution series of purified antibodies, ranging from 0.2 to 100 nm in HBS/Tween 20 buffer (BIAcore), was injected over the F-protein and reference cell surfaces, which were connected in series. In each measurement, the residual antibody was removed from the sensor chip by a brief pulse of 100 mM HCl. The binding curves were globally fitted to a 1:1 Langmuir binding model using the BIAevaluation program. This algorithm calculates both kon and koff. The apparent equilibrium dissociation constant, Kd, was deduced as the ratio of the two rate constants, koff/kon.

The subject of assay [13] is RSV with F protein mutations at position 272 other than K272E. Kind of assay: Microneutralization assay of MARMs, other mutations at position 272. To be noted: all other mutations indicated at position 272.
The mark [14] stands for this setting: MARM NuMARM3, K272E, selection Numax ™.

“And” between values parts separate entries of the source, which are not always exact repeats. Identical values can stand only once. Where no end group is shown, it is not given here.

Sequence of Numax™ (P01857 with tags, fused parts or gaps limits assumed, other chains not shown): as above
Sequence of Numax™ (MEDI-524) (P01857 with tags, fused parts or gaps limits assumed, other chains not shown): as above

Take “F peptide with a histidine at position 262: F peptide with histidine at position 262 tested in the Numax binding ELISA; probably SEQ ID No. 13 (NSELLSLIHDMPITNDQKKLMSNN; Derived from respiratory syncytial virus sequence)”: the “Binding to Numax™ compared with wild-type F protein epitope (SEQ ID NO.1)” value in assay [1] was “more tightly”.
What is called Kd is the concentration at which binding is half-saturated. Lower therefore signals tighter binding. On to “NSELLSLIHDMPITNDQKKLMSNNVQIVRQ-NH2 (C-terminus assumed) [SEQ ID NO: 25]”, for which, in assay [2], the ka was 2.50E+05 and 3.62E+05; the kd is 1.81E−03 and 1.97E−03; the dissociation constant (Kd) is 7.23 nM and 5.44 nM. In assay [3], the “Ka (association constant)” value came to 6.5e+06 M⁻¹, the ΔHbinding is -10.4 kcal/mol and the ΔSbinding was −4.7.
As for “NSELLSLINDMPITNDQKKLMSNN-NH2 [SEQ ID NO.28]”, in [4], the “binding strength compared to the SEQ ID NO.24 peptide” value is listed as ~3 orders of magnitude lower.
As for “STYMLTNSELLSLIHDMPITNDQKKLMSNN-NH2 (C-terminus assumed) [SEQ ID NO: 26]”, in [2], the ka came to 2.43E+05, the kd stood at 5.52E−03 and the equilibrium dissociation constant (Kd) came to 22.7 nM. In [3], the “Ka (association constant)” value came out at 7.1e+06 M⁻¹, the ΔHbinding is -11.4 kcal/mol and the ΔSbinding is recorded as −8.1.
As to “Synagis ®: humanized RSV monoclonal antibody directed against the F glycoprotein of RSV [reference compound]”, the “Neutraliz by antibody ?” value is listed as “No” in [5]; “No” in [6]; “No” in [7]; “No” in [8]; “lost their ability to neutralize” in [8] (listed as Synagis®); “No” in [9]. Moreover, the “Neutraliz by antibody ?” value in [10] (MARM #6, K272E, selection A4b4) is on record as “No”; in assay [10] (setting [14]), “No”; in [11], “No”. Also, the “Neutralization of RSV” value in assay [10] was “longer neutralized RSV”.

B1: Numax ™: enhanced potency RSV-specific monoclonal antibody derived by in vitro affinity maturation of palivizumab (antibody, listed as Chimaera sp., V domains shown)
VH: QVTLRESGPALVKPTQTLTLTCTFSGFSLSTAGMSVGWIRQPPGKALEWLADIWWDDKKHYNPSLKDRLTISKDTSKNQVVLKVTNMDPADTATYYCARDMIFNFYFDVWGQGTTVTVSS
VL: DIQMTQSPSTLSASVGDRVTITCSASSRVGYMHWYQQKPGKAPKLLIYDTFFLDSGVPSRFSGSGSGTEFTLTISSLQPDDFATYYCFQGSGYPFTFGGGTKVEIK
Consider B1, for which the Kd in assay [12] stood at 0.004 nM. The molecule also yielded a ka in assay [12] of 4.70E+05. For the same molecule, the kd in assay [12] is 1.88E−06. The “Neutraliz by antibody ?” value in assay [5] is “Yes”; in assay [6], “Yes”; in assay [7], “Yes”; in [7] (listed as Numax™), “did not knock out Numax™ neutralization”; in [8], “No”; in [8] (listed as Numax™), “lost their ability to neutralize”. Further, the “Neutraliz by antibody ?” value was “No” in assay [9]; “No” in assay [10] (MARM #6, K272E, selection A4b4); “No” in assay [10] (setting [14]); “Yes” in assay [11]. The “Neutralization of RSV” value in assay [10] was “longer neutralized RSV”. The “Ability to neutralize RSV” value in assay [13] is reported as “retain its ability to neutralize”.

Values taken from patent publication US20060099220A1, “Antibodies against and methods for producing vaccines for respiratory syncytial virus” (MEDIMMUNE, INC., priority 2004, published 2006).
